Test results reported in patent publication US9616019B2, “Nanosuspension of a poorly soluble drug via microfluidization process” (Celgene Corporation, priority 2009, dated 2017).

Experiment: Particle size distribution by laser diffraction particle size analyzer
Type: physicochemical
Method: The particle size distribution of the resultant suspensions can be measured using any instrumentation. An example is laser diffraction using a Cilas Particle Size Analyser 1190. The images of the particles can be taken using, for example, the microscope “Olympus”. The resolution rates can be determined, for example, by a pION μDISS Profiler.
An aqueous dispersion of cyclopropyl-N-{2-[(1S)-1-(3-ethoxy-4-methoxyphenyl)-2-(methylsulfonyl)ethyl]-3-oxoisoindoline-4-yl}carboxamide up to 200 mg/ml in 0.5% HPMC E5 were able to be processed through the Microfluidizer processor. […] By processing at 27K psi for 100 passes, the mean particle size by volume was reduced from 8.0 μm to 0.39 μm, while by processing at 15K psi, the mean size was 0.91 μm. The D90 of particle size by number was 0.09 μm.
Nanosuspensions were formed by initially stirring the micronized cyclopropyl-N-{2-[(1S)-1-(3-ethoxy-4-methoxyphenyl)-2-(methylsulfonyl)ethyl]-3-oxoisoindoline-4-yl}carboxamide in aqueous excipient solutions including PVP, CMC, HPMC, PEG, PEO, Transcutol, glycerin, and/or various surfactants for wetting and solubilization, followed by passing through a high-shear microfluidizer processor. The particle size distribution of the resultant suspensions was measured by a laser diffraction particle size analyzer. The images of the particles were taken using a microscope.
Aqueous dispersions of cyclopropyl-N-{2-[(1S)-1-(3-ethoxy-4-methoxyphenyl)-2-(methylsulfonyl)ethyl]-3-oxoisoindoline-4-yl}carboxamide up to 200 mg/ml in polymeric excipients were processed with this approach. The 200 mg/mL nanosuspension was physically stable at room temperature for 2 months, based on the images and particle size analysis. The D90 of particle size by number was 0.09 μm. […] Upon dilution from 200 mg/ml to 25 mg/ml with specific surfactants, the solubility increased 40 fold over 40 minutes.

D90 of particle size by number: 0.09 μm | mean particle size by volume (before microfluidization): 8.0 μm | mean particle size (optimal process pressure and time): 0.05 μm | mean particle size by volume (processing at 15K psi): 0.91 μm | mean particle size (processing at 15K psi (Example 4)): 0.08 μm | mean particle size by volume (processing at 27K psi for 100 passes, 0.5% HPMC E5): 0.39 μm | mean particle size (processing at 27K psi for 130 passes): 0.05 µm
SMILES: CCOc1cc([C@@H](CS(C)(=O)=O)N2Cc3cccc(NC(=O)C4CC4)c3C2=O)ccc1OC [cyclopropyl-N-{2-[(1S)-1-(3-ethoxy-4-methoxyphenyl)-2-(methylsulfonyl)ethyl]-3-oxoisoindoline-4-yl}carboxamide]
